Consider one compound from patent US8802704B2, “Oxadiazole derivatives” (Merck Serono SA, priority 2009, dated 2014).

In data set [1] the target is S1P3 (Homo sapiens, UniProt Q99500). Briefly: Receptor binding assay, [33P]sphingosine 1-phosphate competition (SPA), S1P3.
Data set [2] can be described thus: Pharmacokinetics (PK parameters from lymphopenia, mouse). As to conditions: PK-PD (30 mpk). Type of data set: in vivo. Here is the method: (§1) Female C57BL/6 mice (Elevage Janvier) (8 week old) receive S1P agonists by oral route. Blood is sampled in heparinized (100 IU/kg, ip) mice by intracardiac or retroorbital puncture under isoflurane anesthesia 2 to 120 hrs after drug treatment. The white blood cells (lymphocytes and neutrophils) are counted using a Beckman/Coulter counter. The quality of blood sampling is assessed by counting erythocytes and platelets.
The pharmacoinetic properties of compound of example 70, N-(2-fluoro-4-{5-[2′-methyl-2-(trifluoromethyl)biphenyl-4-yl]-1,2,4-oxadiazol-3-yl}benzyl)-N-methylglycine, are the following: […]

Data set [3] has as its system lymphocytes. Briefly: Model of S1P agonists-induced lymphopenia in mice. Type of data set: in vivo. Conditions: oral route. As for the experimental part: as §1
The target of data set [4] is T1, S1P1 (Homo sapiens, UniProt P21453). Briefly: S1P1 internalization assay in S1P1-U2OS cells (cell imaging). Type of data set: cell-based. As to conditions: U2OS cells expressing S1P1-EGFP, 1 hour. An outline of the steps:
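U2OS cells stably expressing human S1P1-EGFP, serum-starved 2 h in medium with 0.1% fatty-acid-free BSA, then treated with compound for 1 h at 37° C. After paraformaldehyde fixation and Hoechst staining, internalization imaged as S1P1-EGFP spot count per nucleus.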
Target sequence in this assay (P21453 whole entry): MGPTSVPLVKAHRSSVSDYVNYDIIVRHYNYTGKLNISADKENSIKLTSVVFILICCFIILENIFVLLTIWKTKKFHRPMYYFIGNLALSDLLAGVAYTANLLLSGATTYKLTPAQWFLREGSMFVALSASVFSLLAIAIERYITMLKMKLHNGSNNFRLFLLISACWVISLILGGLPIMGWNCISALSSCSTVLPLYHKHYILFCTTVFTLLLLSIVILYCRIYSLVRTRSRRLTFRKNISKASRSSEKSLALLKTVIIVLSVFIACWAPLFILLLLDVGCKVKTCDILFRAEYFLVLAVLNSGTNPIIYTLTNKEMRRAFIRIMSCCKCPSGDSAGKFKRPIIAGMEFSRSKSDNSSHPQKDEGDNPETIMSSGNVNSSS

Data set [5] concerns the target T1, S1P1. In words: Receptor binding assay, [33P]sphingosine 1-phosphate competition (SPA), S1P1.
Target sequence in this assay (P21453 whole entry, species assumed): as the sequence (P21453 whole entry) above
Where [6] appears, read: female, C57BL/6, plasma, po, 30 mg/kg.

What is called Ki is a dissociation constant, usually derived from enzyme kinetics or from competition with a known ligand. As usually defined, the AUC(0-inf) is the area under the concentration-time curve extrapolated to infinity. Lower therefore signals low exposure. Usually CL/F stands for the apparent clearance, not corrected for the fraction that reaches the circulation. As a reminder, the Cmax is the maximum level reached in the sampled fluid or tissue. The Tmax is the time from dosing to the highest level. Broadly, the half-life is how long it takes for the measured level to halve. Higher therefore signals slow loss. A word on the EC50: it is the concentration that produces a half-maximal response. A high value points to lower potency in that assay.

Read-outs that look alike come from different tables or passages of the source.

S1P3, sequence (Q99500 whole entry, species assumed): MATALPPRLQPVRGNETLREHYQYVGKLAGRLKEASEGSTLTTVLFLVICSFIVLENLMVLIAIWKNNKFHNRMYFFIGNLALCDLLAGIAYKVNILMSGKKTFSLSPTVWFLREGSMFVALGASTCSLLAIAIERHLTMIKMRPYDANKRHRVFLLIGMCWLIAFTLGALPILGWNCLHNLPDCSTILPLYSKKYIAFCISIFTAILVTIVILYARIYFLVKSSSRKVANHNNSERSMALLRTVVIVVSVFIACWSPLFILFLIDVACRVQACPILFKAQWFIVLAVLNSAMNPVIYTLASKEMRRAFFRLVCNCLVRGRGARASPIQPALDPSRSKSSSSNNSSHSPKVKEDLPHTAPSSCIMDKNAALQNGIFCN

`Cc1ccccc1-c1ccc(-c2nc(-c3ccc(CN(C)CC(=O)O)c(F)c3)no2)cc1C(F)(F)F` [Example 70, N-(2-fluoro-4-{5-[2′-methyl-2-(trifluoromethyl)biphenyl-4-yl]-1,2,4-oxadiazol-3-yl}benzyl)-N-methylglycine]: the inhibition constant (Ki) in data set [1] (96 well-plate, read-out: S1P3 binding Ki (M) (96 well-plate)) turned out to be 4.43e-07 M. The Ki in data set [1] (384 well-plate, read-out: S1P3 binding Ki (M) (384 well-plate)) worked out at 4.11e-07 M. In addition, the “Lymphe node/plasma ratio: 24 h” value in data set [2] (24 h) stood at 4.4. The “Lymphe node/plasma ratio: 48 h” value in data set [2] (48 h) was 4.0. The Kp in data set [2] (female, C57BL/6, brain, oral, 30 mg/kg, ratio of AUCZ, read-out: Brain/plasma ratio: AUCZ (h * ng/ml)) was 2.4. Further, in data set [2] (setting [6]), the AUC(0-inf) stood at 104 µg·h/mL, the CL/F was 5 mL/min/kg, the peak level (Cmax) was 8780 ng/mL and the time of peak concentration (Tmax) worked out at 2 h. In data set [2] (setting [6]), the half-life is 7.5 h. The “% of lymphopenia in mouse at 48 h” value in data set [3] was 72 +/− 8%. It took 13 nM to reach a half-maximal effect in data set [4] (EC50). The Ki in data set [5] (96 well-plate, read-out: S1P1 binding Ki (M) (96 well-plate)) amounted to 6.81e-10 M. Besides, the inhibitory constant (Ki) in data set [5] (384 well-plate, read-out: S1P1 binding Ki (M) (384 well-plate)) is 2.19e-09 M.
